From patent US20130052204A1, “(POLY)-GLYCEROLPHOSPHATE-BASED ANTI-GRAM POSITIVE BACTERIAL VACCINE” (priority 2009, published 2013)
“Also recorded” adds a separate entry of the source.

Legend:
Assay type in all cases: binding
Pagibaximab (anti-LTA) = assay: ELISA: biotinylated LTA or PGP added to Pagibaximab-coated plates; conditions: for O.D. readings: Pagibaximab-coated wells
Description: (§1) ELISA plates (96-well) were coated overnight with […] of Pagibaximab (anti-LTA), Zantibody (anti-peptidoglycan), or Synagis (anti-RSV), all of which are chimeric IgG1 antibodies. PGP was prepared as described above in Example 1, and LTA was extracted from S. aureus. The plates were then developed with horseradish peroxidase for 30 minutes.

[1] = tested on: Zantibody (anti-peptidoglycan); assay: ELISA: biotinylated LTA or PGP added to Zantibody-coated plates; conditions: anti-peptidoglycan-coated wells
Description: as §1

Synagis (anti-RSV) = assay: ELISA: biotinylated LTA or PGP added to Synagis-coated plates; conditions: Synagis-coated wells
Description: as §1

[2] = biotinylated LTA or PGP at 0.004 μg/ml
[3] = biotinylated LTA or PGP at 0.012 μg/ml
[4] = biotinylated LTA or PGP at 0.037 μg/ml
[5] = biotinylated LTA or PGP at 0.1 μg/ml
[6] = biotinylated LTA or PGP at 0.33 μg/ml
[7] = biotinylated LTA or PGP at 1 μg/ml
[8] = biotinylated LTA or PGP at 3 μg/ml

poly-glycerolphosphate [PGP]
O.D. readings (Pagibaximab (anti-LTA); [2]): 0.34
O.D. readings (Pagibaximab (anti-LTA); [3]): 0.51
O.D. readings (Pagibaximab (anti-LTA); [4]): 0.67
O.D. readings (Pagibaximab (anti-LTA); [5]): 0.89
O.D. readings (Pagibaximab (anti-LTA); [6]): 1.09
O.D. readings (Pagibaximab (anti-LTA); [7]): 1.42
O.D. readings (Pagibaximab (anti-LTA); biotinylated LTA or PGP at 3 μg/ml, one hour): 1.91
recognition / binding by Pagibaximab (in words) (Pagibaximab (anti-LTA); compared with LTA from S. aureus): recognized; also recorded: binds equally well
O.D. readings [1, 2]: <0.02
O.D. readings [1, 3]: <0.02
O.D. readings [1, 4]: <0.02
O.D. readings [1, 5]: <0.02
O.D. readings [1, 6]: <0.02
O.D. readings [1, 7]: <0.02
O.D. readings [1, 8]: 0.03
O.D. readings (Synagis (anti-RSV); [2]): <0.02
O.D. readings (Synagis (anti-RSV); [3]): <0.02
O.D. readings (Synagis (anti-RSV); [4]): <0.02
O.D. readings (Synagis (anti-RSV); [5]): <0.02
O.D. readings (Synagis (anti-RSV); [6]): <0.02
O.D. readings (Synagis (anti-RSV); [7]): <0.02
O.D. readings (Synagis (anti-RSV); [8]): <0.02
